In general, Kd refers to the equilibrium constant for the complex coming apart. A high value points to weaker binding.

Each structure is given as a SMILES string. Structures can show the parent of a compound that is named as a salt.

Kd data for one molecule are collected here from paper PMC4076047 (Nature chemical biology, 2014).

This assay concerns the target Vps35 (retromer core complex Vps35–Vps29–Vps26) (Homo sapiens, UniProt Q96QK1+Q9UBQ0). Kind of assay: microscale thermophoresis. It is filed as binding. On the technique in general: In MST a laser heats a spot of the sample, and binding alters the fluorescence response.

Molecule `N=C(N)SCc1ccc(CSC(=N)N)s1` [compound 1, thiophene-2,5-diylbis(methylene) dicarbamimidothioate dihydrochloride] showed a Kd of about 5 µM.
